No end group written: not given here.
Columns and labels:
Assay in all cases: biochemical
Type in all cases: binding
HLA-DR DRB1*1302 (DR13) = HLA-DR DRB1*1302 (DR13) (Homo sapiens, UniProt P01903+P01911, A100E/A169T/K41T/L162R/M171V/P40S/Q125H/Q178H/Q39Y/Q99D/R42S/S66N/T262R/V115G/W38E/Y61H); conditions: DRBI *1302
HLA-DR DRB3*0101 (DR52) = HLA-DR DRB3*0101 (DR52) (Homo sapiens, UniProt P01903+P79483)
HLA-DR DRB5*0101 (DR51) = HLA-DR DRB5*0101 (DR51) (Homo sapiens, UniProt P01903+Q30154); conditions: DRB5 *0101
HLA-DR DRB1*0101 (DR1) = HLA-DR DRB1*0101 (DR1) (Homo sapiens, UniProt P01903+P01911, A100R/D57E/F55L/F60I/F76Y/I96L/L162R/M171V/P40L/Q125E/R42F/V115G/Y59C); conditions: DRB1 *0101
HLA-DR DRB1*1101 (DR11) = HLA-DR DRB1*1101 (DR11) (Homo sapiens, UniProt P01903+P01911, A100R/A169T/A87E/I96F/K41T/L162R/M171V/P40S/Q125H/Q178H/Q39Y/Q99D/R42S/S66Y/T262R/V115G/W38E); conditions: DRB1 *1101
HLA-DR DRB1*0901 (DR9) = HLA-DR DRB1*0901 (DR9) (Homo sapiens, UniProt P01903+P01911, A100R/A103E/D57H/D86V/F55Y/F60I/F76Y/I96F/K127E/L162R/M171V/P40D/Q125H/Q99R/R33Q/R42F/S133A/S66N/T210M/V115G/W38K/Y107V/Y59G/Y89S); conditions: DRB1 *0901
HLA-DR DRB1*0401 (DR4) = HLA-DR DRB1*0401 (DR4) (Homo sapiens, UniProt P01903+P01911, A100K/A169T/F76Y/I96L/K127E/L162R/M171V/N62H/P40V/Q125Y/R42H/S133A/S149N/S66Y/V115G/V209L/W38E); conditions: DRB1 *0401
HLA-DR DRB1*0701 (DR7) = HLA-DR DRB1*0701 (DR7) (Homo sapiens, UniProt P01903+P01911, A100R/A102G/A103Q/D57E/D86V/E43K/F76Y/K127E/L162R/M171V/P40G/Q125H/Q99D/R33Q/R42Y/R54Q/S133A/S66F/T210M/V115G/Y107V/Y59L/Y89S); conditions: DRB1 *0701
HLA-DR DRB1*1501 (DR15) = HLA-DR DRB1*1501 (DR15) (Homo sapiens, UniProt P01903+P01911); conditions: DRBI *1501
HLA-DR DRB1*0802 (DR8) = HLA-DR DRB1*0802 (DR8) (Homo sapiens, UniProt P01903+P01911, A100R/A103L/A169T/F76Y/H45Y/I96F/K41T/L162R/M171V/P40S/Q125H/Q178H/Q39Y/Q99D/R218S/R42G/S66Y/V115G/W38E)
HLA-DR DRB4*0101 (DR53) = HLA-DR DRB4*0101 (DR53) (Homo sapiens, UniProt P01903+P13762, G164S); conditions: DRB4 *0101

HLA-DR DRB1*1302 (DR13), sequence (P01903 26-254 limits assumed, other chains not shown): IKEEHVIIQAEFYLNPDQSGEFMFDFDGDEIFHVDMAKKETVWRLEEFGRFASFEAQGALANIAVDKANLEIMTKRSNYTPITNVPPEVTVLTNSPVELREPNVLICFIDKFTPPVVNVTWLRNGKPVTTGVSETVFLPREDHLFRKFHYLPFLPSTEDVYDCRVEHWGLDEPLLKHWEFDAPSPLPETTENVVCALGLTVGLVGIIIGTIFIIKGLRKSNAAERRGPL
HLA-DR DRB1*1101 (DR11), sequence (P01903 26-254 limits assumed, other chains not shown): as above

Compound	IC50 (HLA-DR DRB1*1302 (DR13)) [µM]	IC50 (HLA-DR DRB3*0101 (DR52)) [µM]	IC50 (HLA-DR DRB5*0101 (DR51)) [µM]	IC50 (HLA-DR DRB1*0101 (DR1)) [µM]	IC50 (HLA-DR DRB1*1101 (DR11)) [µM]	IC50 (HLA-DR DRB1*0901 (DR9)) [µM]	IC50 (HLA-DR DRB1*0401 (DR4)) [µM]	IC50 (HLA-DR DRB1*0701 (DR7)) [µM]	IC50 (HLA-DR DRB1*1501 (DR15)) [µM]	IC50 (HLA-DR DRB1*0802 (DR8)) [µM]	IC50 (HLA-DR DRB4*0101 (DR53)) [µM]
CC[C@H](C)[C@H](NC(=O)[C@@H]1CCCN1C(=O)[C@H](Cc1c[nH]cn1)NC(=O)[C@@H](NC(=O)[C@@H]1CCCN1C(=O)[C@@H](NC(=O)[C@H](CO)NC(=O)[C@@H]1CCCN1C(=O)[C@H](CC(C)C)NC(=O)CNC(=O)[C@@H](NC(=O)[C@H](C)NC(=O)[C@H](CCC(=O)O)NC(=O)[C@H](C)N)C(C)C)[C@@H](C)CC)C(C)C)C(=O)NCC(=O)O	5.46	> 11.8	69.3	0.0054	> 66.7	23.1	9.92	2.02	0.056	> 490	–
CC(C)C[C@H](NC(=O)[C@H](CCC(=O)O)NC(=O)[C@H](CCCCN)NC(=O)[C@H](C)NC(=O)[C@H](CC(C)C)NC(=O)[C@@H](NC(=O)[C@H](CO)NC(=O)[C@H](CCCNC(=N)N)NC(=O)[C@@H](N)CC(=O)O)C(C)C)C(=O)N[C@@H](CCCCN)C(=O)N[C@@H](Cc1ccccc1)C(=O)N[C@H](C(=O)N[C@H](C(=O)N[C@@H](CC(C)C)C(=O)N[C@H](C(=O)O)C(C)C)[C@@H](C)O)C(C)C	4.41	> 14.4	2.22	–	21	4.72	–	2.02	1.36	15.8	0.053
CC[C@H](C)[C@H](NC(=O)[C@@H](NC(=O)[C@@H]1CCCN1C(=O)CNC(=O)[C@@H](NC(=O)[C@H](CC(C)C)NC(=O)[C@H](CCC(=O)O)NC(=O)[C@H](C)NC(=O)[C@@H](N)Cc1ccccc1)C(C)C)C(C)C)C(=O)N1CCC[C@H]1C(=O)N[C@@H](CCC(N)=O)C(=O)N[C@@H](CC(=O)O)C(=O)N[C@@H](Cc1c[nH]c2ccccc12)C(=O)N[C@@H](CO)C(=O)N[C@H](C(=O)O)[C@@H](C)O	> 35	> 15	> 200	0.012	> 50	39.5	–	24.1	> 45.5	> 245	0.983
CC(C)C[C@H](NC(=O)[C@H](CCC(N)=O)NC(=O)[C@H](C)NC(=O)[C@H](CC(N)=O)NC(=O)[C@H](CCCCN)NC(=O)[C@@H](NC(=O)[C@H](CCCCN)NC(=O)[C@H](CC(N)=O)NC(=O)CN)C(C)C)C(=O)N[C@@H](C)C(=O)NCC(=O)N[C@@H](C)C(=O)N[C@@H](CCCCN)C(=O)NCC(=O)N[C@H](C(=O)O)C(C)C	> 35	> 12.5	1.22	0.677	> 66.7	7.88	–	> 83.3	> 45.5	28.9	–
CC[C@H](C)[C@H](NC(=O)[C@@H](N)CC(C)C)C(=O)N[C@@H](CCSC)C(=O)N[C@@H](Cc1ccc(O)cc1)C(=O)N[C@@H](CO)C(=O)N[C@@H](C)C(=O)N[C@@H](Cc1c[nH]cn1)C(=O)N[C@@H](CC(=O)O)C(=O)N[C@H](C(=O)N[C@H](C(=O)N[C@H](C(=O)N[C@@H](CO)C(=O)NCC(=O)N[C@@H](CC(C)C)C(=O)N[C@@H](CCC(N)=O)C(=O)O)C(C)C)[C@@H](C)O)[C@@H](C)O	1.75	6.83	> 100	4.5	> 66.7	0.813	0.024	–	0.184	24.8	4.38
CSCC[C@H](NC(=O)[C@H](CC(=O)O)NC(=O)[C@H](Cc1ccc(O)cc1)NC(=O)[C@H](CC(C)C)NC(=O)[C@@H]1CCCN1C(=O)[C@H](Cc1c[nH]cn1)NC(=O)[C@@H]1CCCN1)C(=O)N[C@@H](CO)C(=O)N[C@@H](CC(C)C)C(=O)N[C@@H](CC(C)C)C(=O)N[C@@H](CCCCN)C(=O)N[C@@H](CC(N)=O)C(=O)N[C@@H](CCCNC(=N)N)C(=O)N[C@@H](Cc1ccccc1)C(=O)N[C@@H](CC(C)C)C(=O)O	11.7	> 13.5	3.1	–	> 50	12.8	20.8	10.7	0.712	29.8	7.49
CSCC[C@H](NC(=O)[C@H](CCC(=O)O)NC(=O)[C@H](CCC(N)=O)NC(=O)[C@@H]1CCCN1)C(=O)N[C@@H](CCCCN)C(=O)N[C@H](C(=O)N[C@@H](Cc1ccc(O)cc1)C(=O)N[C@@H](CO)C(=O)N[C@H](C(=O)N[C@@H](CO)C(=O)N[C@@H](Cc1ccccc1)C(=O)N[C@@H](CC(=O)O)C(=O)N[C@@H](CO)C(=O)N[C@@H](CC(C)C)C(=O)N[C@@H](Cc1ccccc1)C(=O)O)C(C)C)[C@@H](C)O	24.7	14.6	≥ 100	15.1	> 50	1.98	3.02	–	0.919	> 98	0.579
CC[C@H](C)[C@H](NC(=O)[C@@H]1CCCN1C(=O)[C@H](CC(=O)O)NC(=O)[C@@H](NC(=O)[C@@H]1CCCN1C(=O)[C@H](Cc1ccccc1)NC(=O)[C@@H](NC(=O)[C@H](CC(=O)O)NC(=O)[C@@H](NC(=O)[C@@H]1CCCN1C(=O)[C@H](CO)NC(=O)[C@@H](N)CCCNC(=N)N)[C@@H](C)CC)[C@@H](C)O)[C@@H](C)O)C(=O)N[C@@H](CCCCN)C(=O)N[C@@H](CCC(=O)O)C(=O)N[C@@H](CO)C(=O)O	> 35	> 14.4	28.6	> 50	> 200	6.12	–	> 62.5	2.37	> 245	0.469
CC[C@H](C)[C@H](NC(=O)[C@H](CO)NC(=O)[C@H](CC(N)=O)NC(=O)[C@H](C)NC(=O)[C@H](CC(C)C)NC(=O)[C@H](CCC(=O)O)NC(=O)[C@H](Cc1ccccc1)NC(=O)[C@@H](N)C(C)C)C(=O)N[C@H](C(=O)N[C@@H](CC(C)C)C(=O)N1CCC[C@H]1C(=O)N[C@@H](Cc1ccccc1)C(=O)N[C@@H](CC(=O)O)C(=O)N[C@@H](CS)C(=O)N[C@@H](CCCNC(=N)N)C(=O)O)C(C)C	0.024	0.128	–	0.019	11.8	0.05	0.999	0.039	0.477	36.1	–
DFEVFFQRLGIASGR	10.1	30.7	3.56	–	0.128	2	0.221	21.9	10.2	0.122	0.0042
GKVFRGNKVKNAQLA	0.046	7.59	–	0.612	0.894	31.3	1.09	2.35	3.37	4.12	7.88
LSGLHGQDLFGIWSK	> 35	> 8.83	81.7	0.148	30.2	> 125	> 26.7	> 35.7	32.2	> 81.7	–
RVPVSHSFPHPLYNM	0.377	> 14.9	–	0.067	> 200	0.097	> 16	–	5.52	100	9.21
TNKFSGYPLYHSVYE	> 35	> 21.9	2.94	3.4	33.3	0.741	5.52	30.9	0.489	0.614	–

Reference: patent publication US20060079453A1, “Hla binding peptides and their uses” (priority 2002, published 2006)
